The subject of one assay is H460a. The assay is described as follows: H460a cell-based MTT proliferation assay. To be noted: 120 h, 5 days post addition of test compound, read-out: Antiproliferative Activity H460a Assay IC90. As to the method: The H460a cell line was purchased from (ATCC; Rockville, Md.) and was grown in the medium recommended by ATCC. For analysis of the effect of the test compounds on growth of these cells, the cells were plated at 150 cells per well in a 96-well tissue culture plate, and were incubated overnight at 37° C. with 5% CO2. The next day, the test compounds were dissolved in 100% dimethyl sulfoxide (DMSO) to yield a 10 mM stock solution. Each compound was diluted with sterile medium to 1 mM in a sufficient quantity to yield a final concentration of 120 μM. The compounds were then serially diluted in medium with 1.2% DMSO. One-fourth final volume of the diluted compounds was transferred to 96 well plates. Test compounds were assayed in duplicate. […] The plates were returned to the incubator, and 5 days post addition of test compound, were analyzed as described below. […] Absorbencies were read in a microtiter plate reader (Molecular Dynamics) at a wavelength of 570 nm with a 650 nm reference. Percent inhibition was calculated by subtracting the absorbance of the blank (no cell) wells from all wells, then subtracting the division of the average absorbance of each test duplicate by the average of the controls from 1.00. Inhibitory concentrations (IC50) were determined from the linear regression of a plot of the logarithm of the concentration versus the percent inhibition.
On the technique in general: Formazan colour is commonly taken as a measure of viable cells.

For a further assay, the target named is T1, FGFR.
T1 construct: fused on or other part: GST tag
Put plainly: FGFR kinase HTRF assay. It counts as biochemical. To be noted: 1.5 nM activated FGFR, 10 μM ATP; read-out: Inhibition of FGFR IC50. As to the method:
(§1) To determine inhibition of KDR and FGFR, kinase assays were conducted using an HTRF (Homogeneous Time Resolved Fluorescence) assay. This assay is described in A. J. Kolb et. al., Drug Discovery Today, 1998, 3(7), p 333.
FGFR activity assays were carried out as described above for the KDR activity assay with the following differences. GST-tagged FGFR enzyme was activated at room temperature for 1 hour in the following activation buffer: 100 mM HEPES, pH 7.4, 50 mM NaCl, 20 mM MgCl2, and 4 mM ATP. […] The rest of the assay was performed in the same manner as KDR assay.
(§2) Compound IC50 values were determined from duplicate sets of data, and calculated by using Excel and fitting data to equation Y=[(a−b)/{1+(X/c)^d]+b, where a and b are enzyme activity in the presence of no test inhibitor compound and an infinite amount of inhibitor test compound, respectively, c is the IC50 and d is the hill constant of the compound response. The IC50 value is the concentration of test compound that reduces by 50% the enzyme activity under the test conditions described.
In general terms: In TR-FRET formats the signal depends on donor and acceptor labels being close together.

A further assay deals with T2, KDR (Homo sapiens, UniProt P35968).
T2 construct: EEE tag
The assay is described as follows: KDR kinase HTRF assay. It is filed as biochemical. As to the method: as §1
Prior to kinase reaction, recombinant EEE-tagged KDR was activated in the presence of activation buffer (50 mM HEPES, pH 7.4, 1 mM DTT, 10% glycerol, 150 mM NaCl, 0.1 mM EDTA, 26 mM MgCl2, and 4 mM ATP). The enzyme was incubated at 4° C. for 1 hour.
Kinase activity assays were performed in 96-well polypropylene plates (Falcon) with a total volume of 90 μL in each well. Each well contained 1 μM KDR substrate (Biotin-[…]), 1 nM activated KDR, and a test compound with one of 8 assay concentrations ranging from […] to […] (1:5 serial dilution). […] The reaction was incubated at 37° C. for 30 minutes. To stop the KDR reaction, 72 μL of reaction mixture was transferred into a STOP plate containing 18 μL of revelation buffer (20 mM EDTA, 50 mM HEPES, pH 7.4, 0.02% BSA, 10 nM Eu-labelled anti-pY antibody (final conc. 2 nM), and 100 nM streptavidin (final conc. 20 nM)). After mixing, 35 μL of solution was transferred into duplicate wells of a 384-well black plate (Costar), and read at 615/665 nm on a Wallac Victor 5 reader.
as §2

T2 sequence (P35968 20-1356, species assumed): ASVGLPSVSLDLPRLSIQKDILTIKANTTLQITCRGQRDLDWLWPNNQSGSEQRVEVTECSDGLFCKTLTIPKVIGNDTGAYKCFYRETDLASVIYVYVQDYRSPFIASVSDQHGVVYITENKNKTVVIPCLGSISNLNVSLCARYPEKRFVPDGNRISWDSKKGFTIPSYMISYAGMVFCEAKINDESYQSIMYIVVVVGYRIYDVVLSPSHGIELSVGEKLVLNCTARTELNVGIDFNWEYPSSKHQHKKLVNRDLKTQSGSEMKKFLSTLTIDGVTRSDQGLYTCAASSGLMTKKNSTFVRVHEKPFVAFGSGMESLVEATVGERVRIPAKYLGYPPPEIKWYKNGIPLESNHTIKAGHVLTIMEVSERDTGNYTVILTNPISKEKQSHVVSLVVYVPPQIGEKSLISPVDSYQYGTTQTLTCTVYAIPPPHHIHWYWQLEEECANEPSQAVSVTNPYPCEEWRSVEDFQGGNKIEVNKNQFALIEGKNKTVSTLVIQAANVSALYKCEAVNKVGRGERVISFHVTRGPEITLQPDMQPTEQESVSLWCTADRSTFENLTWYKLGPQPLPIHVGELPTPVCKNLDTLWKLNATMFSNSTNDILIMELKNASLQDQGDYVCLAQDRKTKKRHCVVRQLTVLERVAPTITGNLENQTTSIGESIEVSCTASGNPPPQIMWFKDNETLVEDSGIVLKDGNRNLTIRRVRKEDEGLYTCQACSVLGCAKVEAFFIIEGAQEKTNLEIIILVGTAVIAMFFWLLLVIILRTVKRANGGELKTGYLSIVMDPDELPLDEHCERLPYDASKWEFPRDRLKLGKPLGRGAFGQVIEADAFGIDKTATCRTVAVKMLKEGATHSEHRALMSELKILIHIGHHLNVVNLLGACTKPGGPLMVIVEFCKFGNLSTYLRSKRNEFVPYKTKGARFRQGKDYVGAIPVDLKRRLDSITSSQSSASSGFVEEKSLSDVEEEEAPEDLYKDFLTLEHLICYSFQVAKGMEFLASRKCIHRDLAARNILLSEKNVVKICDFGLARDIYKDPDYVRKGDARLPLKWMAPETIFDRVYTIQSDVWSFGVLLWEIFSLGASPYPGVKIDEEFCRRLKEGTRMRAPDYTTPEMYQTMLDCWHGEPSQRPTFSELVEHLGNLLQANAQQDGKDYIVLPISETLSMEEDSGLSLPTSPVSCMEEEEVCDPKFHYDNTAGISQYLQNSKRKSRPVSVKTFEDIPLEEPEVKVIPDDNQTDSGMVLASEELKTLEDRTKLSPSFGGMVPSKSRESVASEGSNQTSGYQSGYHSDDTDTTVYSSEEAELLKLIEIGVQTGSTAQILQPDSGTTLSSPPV

`COc1cc2c(cc1F)C(c1ccccc1Cl)=Nc1c(n[nH]c1C)N2` [IVa, 5-(2-chlorophenyl)-1,2-dihydro-7-fluoro-8-methoxy-3-methyl-pyrazolo[3,4-b][1,4]benzodiazepine]: the IC90 in the assay with H460a was determined as 1570 nM. Moreover, the IC50 on FGFR stood at 28 nM; on KDR, 10 nM.

As usually defined, the IC90 is the concentration at which the effect reaches the 90% level. By IC50 is commonly meant the midpoint of a concentration-inhibition curve.

Values taken from US7524840B2, “7,8-disubstituted pyrazolobenzodiazepines” (Hoffmann-La Roche Inc., priority 2004, dated 2009).
